Measurements reported in patent US20210188775A1, “CARBOXAMIDE AND SULFONAMIDE DERIVATIVES USEFUL AS TEAD MODULATORS” (Genentech, Inc., priority 2018, published 2021).

Experiments:
TEAD3 = TEAD3 (Homo sapiens, UniProt Q99594); test: TEAD lipid assay (Lipid FP, Bodipy-C16 probe displacement); type: binding; settings: fluorescence polarization, His-tagged TEAD, 60 minutes incubation
Description: (§1) A TEAD lipid assay was done according to the following method. His-tagged TEAD proteins were pre-incubated with a Bodipy-C16 FP probe (Life Technologies Cat #D3821) for 30 minutes at room temperature to pre-form TEAD-probe complex. […] Duplicate 10 point dose response curves were generated for each test compound. The potency of compounds as TEAD lipid pocket binders was determined by IC50 value generated using a non-linear 4 parameter curve fit.

TEAD2 = TEAD2 (Homo sapiens, UniProt Q15562); test: as above; type: binding; settings: fluorescence polarization, His-tagged TEAD, 60 minutes incubation
Description: as §1

Chain of TEAD3 (Q99594 whole entry, species assumed): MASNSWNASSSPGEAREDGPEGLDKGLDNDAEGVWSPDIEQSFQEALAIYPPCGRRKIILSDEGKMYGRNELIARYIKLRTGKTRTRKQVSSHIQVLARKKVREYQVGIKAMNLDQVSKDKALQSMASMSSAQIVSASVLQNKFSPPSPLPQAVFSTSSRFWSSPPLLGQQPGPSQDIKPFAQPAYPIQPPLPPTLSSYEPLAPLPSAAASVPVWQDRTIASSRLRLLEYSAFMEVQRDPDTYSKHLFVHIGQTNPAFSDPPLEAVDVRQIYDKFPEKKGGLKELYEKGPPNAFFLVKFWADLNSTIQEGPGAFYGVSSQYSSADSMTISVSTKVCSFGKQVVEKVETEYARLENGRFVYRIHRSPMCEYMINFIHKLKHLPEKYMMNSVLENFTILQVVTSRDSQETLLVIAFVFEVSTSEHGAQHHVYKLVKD
Chain of TEAD2 (Q15562 whole entry, species assumed): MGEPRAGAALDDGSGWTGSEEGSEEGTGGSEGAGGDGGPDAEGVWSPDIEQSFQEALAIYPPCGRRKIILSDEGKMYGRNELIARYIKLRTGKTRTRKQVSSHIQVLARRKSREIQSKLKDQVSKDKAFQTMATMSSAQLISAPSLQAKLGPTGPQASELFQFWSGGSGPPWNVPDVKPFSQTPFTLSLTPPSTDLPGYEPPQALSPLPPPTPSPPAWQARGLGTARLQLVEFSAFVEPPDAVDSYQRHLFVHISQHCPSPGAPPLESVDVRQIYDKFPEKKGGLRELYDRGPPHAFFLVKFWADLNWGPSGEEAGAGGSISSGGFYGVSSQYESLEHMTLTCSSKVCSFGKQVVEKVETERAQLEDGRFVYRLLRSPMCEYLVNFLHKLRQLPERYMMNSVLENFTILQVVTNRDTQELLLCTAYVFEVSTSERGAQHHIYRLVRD

| IC50 (TEAD3) | IC50 (TEAD2) | SMILES |
| --- | --- | --- |
| 1600 nM | 1600 nM | CC[C@H](CO)NC(=O)c1cc(/C=C/[C@H]2CC[C@H](C(F)(F)F)CC2)c(OC)nn1 [Compound 46, (E)-N-(1-hydroxybutan-2-yl)-6-methoxy-5-(2-(4-(trifluoromethyl)cyclohexyl)vinyl) pyridazine-3-carboxamide] |
| 13000 nM | 1600 nM | CS(=O)(=O)Nc1cnc(C2CC2)c(/C=C/C2CCC(F)(F)CC2)c1 [Compound 52, N-[6-cyclopropyl-5-[(E)-2-(4,4-difluorocyclohexyl)vinyl]-3-pyridyl]methanesulfonamide] |
| 1800 nM | 810 nM | COc1ncc(NS(C)(=O)=O)cc1/C=C/C1CC2(CC2)C1 [Compound 17, N-[6-methoxy-5-[(E)-2-spiro[2.3]hexan-5-ylvinyl]-3-pyridyl]methanesulfonamide] |
| 1800 nM | 730 nM | COc1ncc(NS(C)(=O)=O)cc1C1CC(c2ccc(Cl)cc2)C1 (stereo not shown) [Compound 13, N-[5-[3-(4-chlorophenyl)cyclobutyl]-6-methoxy-3-pyridyl]methanesulfonamide] |
| 650 nM | 640 nM | COc1nc(F)c(NS(C)(=O)=O)cc1/C=C/CC1CCCC1 [Compound 40, N-[5-[(E)-3-cyclopentylprop-1-enyl]-2-fluoro-6-methoxy-3-pyridyl]methanesulfonamide] |
| 830 nM | 1200 nM | Cc1cn(Cc2ccc(Cl)cc2)c2cc(NS(=O)(=O)C3CC3)ccc12 [Compound 23, N-[1-[(4-chlorophenyl)methyl]-3-methyl-indol-6-yl]cyclopropanesulfonamide] |
| 1400 nM | 740 nM | COc1ccc(NS(C)(=O)=O)cc1[C@H]1C[C@H](c2cccc(F)c2)C1 (single isomer, unassigned) [Compound 8A] |
| 1500 nM | 1000 nM | COc1ccc(NS(C)(=O)=O)cc1/C=C/C1CCC(F)(F)CC1 [Compound 2, N-[3-[(E)-2-(4,4-difluorocyclohexyl)vinyl]-4-methoxy-phenyl]methanesulfonamide] |
| 1400 nM | 610 nM | COc1ccc(C(N)=O)cc1/C=C/Cc1ccccc1 [Compound 32, 4-methoxy-3-[(E)-3-phenylprop-1-enyl]benzamide] |
| 1700 nM | 2000 nM | COc1ccc(C(=O)NC(C)C)cc1-c1ccc(C2CC2)cc1 [Compound 26, 3-(4-cyclopropylphenyl)-N-isopropyl-4-methoxy-benzamide] |
| 1700 nM | 960 nM | COc1ccc(NS(C)(=O)=O)cc1/C=C/C1CCC(C)CC1 (single isomer, unassigned) [Compound 6A, (E)-N-(4-Methoxy-3-(2-(4-methylcyclohexyl)vinyl)phenyl) methanesulfonamide] |
| 1600 nM | 780 nM | COc1ccc(C(=O)NC(C)C)cc1[C@H]1C[C@H](c2ccc(Cl)cc2)C1 (single isomer, unassigned) [Compound 9A] |
| 630 nM | 560 nM | COc1cc(F)c(NS(=O)(=O)C2CC2)cc1-c1ccc(C(C)C)cc1 [Compound 11, N-[2-fluoro-5-(4-isopropylphenyl)-4-methoxy-phenyl]cyclopropanesulfonamide] |
| 770 nM | 600 nM | COc1ccc(NS(C)(=O)=O)cc1/C=C/C1CCC(C)(C)CC1 [Compound 5, N-[3-[(E)-2-(4,4-dimethylcyclohexyl)vinyl]-4-methoxy-phenyl]methanesulfonamide] |
| 1200 nM | 380 nM | COc1ccc(NS(=O)(=O)C2CC2)cc1-c1ccc(C(C)C)cc1 [Compound 25, N-[3-(4-isopropylphenyl)-4-methoxy-phenyl]cyclopropanesulfonamide] |
| 760 nM | 2000 nM | COc1cnc(NS(C)(=O)=O)cc1/C=C/C1(F)CCC(F)(F)CC1 [Compound 20, N-[5-methoxy-4-[(E)-2-(1,4,4-trifluorocyclohexyl)vinyl]-2-pyridyl]methanesulfonamide] |
| 1800 nM | 1000 nM | COc1ccc(NS(C)(=O)=O)cc1C1CC1C1CCCCC1 (single isomer, unassigned) [Compound 1B, N-(3-(2-Cyclohexylcyclopropyl)-4-methoxyphenyl)methanesulfonamide] |
| 1200 nM | 1000 nM | COc1ccc(NS(C)(=O)=O)cc1/C=C/C1CCCCC1 [Compound 27, N-[3-[(E)-2-cyclohexylvinyl]-4-methoxy-phenyl]methanesulfonamide] |
| 1400 nM | 1900 nM | CC[C@H](CO)NC(=O)c1cnc(OC)c(/C=C/C2CCC(F)(F)CC2)c1 (racemic) [Compound 35, 6-methoxy-5-[rac-(E)-2-(4,4-difluorocyclohexyl)vinyl]-N-[rac-(1R)-1-(hydroxymethyl)propyl]pyridine-3-carboxamide] |

| IC50 (TEAD3) | IC50 (TEAD2) | SMILES |
| --- | --- | --- |
| 1000 nM | 890 nM | COc1ccc(NS(=O)(=O)C2CC2)cc1/C=C/C1CCCCC1 [Compound 28, N-[3-[(E)-2-cyclohexylvinyl]-4-methoxy-phenyl]cyclopropanesulfonamide] |
| 2000 nM | 1100 nM | COc1nc(F)c(NS(C)(=O)=O)cc1/C=C/C1CCCCC1 [Compound 38, N-[5-[(E)-2-cyclohexylvinyl]-2-fluoro-6-methoxy-3-pyridyl]methanesulfonamide] |
| 620 nM | 720 nM | COc1ccc(C(=O)NC(C)C)cc1/C=C/Cc1ccccc1 [Compound 30, N-isopropyl-4-methoxy-3-[(E)-3-phenylprop-1-enyl]benzamide] |
| 1700 nM | 910 nM | COc1ccc(NS(C)(=O)=O)cc1[C@H]1C[C@H](c2ccc(Cl)cc2)C1 (single isomer, unassigned) [Compound 7A] |
| 860 nM | 590 nM | COc1cc(F)c(NS(C)(=O)=O)cc1-c1ccc(C(C)C)cc1 [Compound 12, N-[2-fluoro-5-(4-isopropylphenyl)-4-methoxy-phenyl]methanesulfonamide] |
| 1600 nM | 1900 nM | COc1ncc(C(=O)NC(C)CCO)cc1/C=C/c1ccc(Cl)cc1 (single isomer, unassigned) [Compound 19, 5-[(E)-2-(4-chlorophenyl)vinyl]-N-(3-hydroxy-1-methyl-propyl)-6-methoxy-pyridine-3-carboxamide] |
| 1300 nM | 960 nM | COc1ccc(NS(C)(=O)=O)cc1/C=C/CC1CCCCC1 [Compound 4, N-[3-[(E)-3-cyclohexylprop-1-enyl]-4-methoxy-phenyl]methanesulfonamide] |
| 1200 nM | 840 nM | COc1ccc(NS(=O)(=O)C2CC2)cc1/C=C/Cc1ccccc1 [Compound 33, N-[4-methoxy-3-[(E)-3-phenylprop-1-enyl]phenyl]cyclopropanesulfonamide] |
| 1100 nM | 1300 nM | COc1ncc(NS(=O)(=O)CC(C)(C)C#N)cc1/C=C/C1CCC(F)(F)CC1 [Compound 50, 2-cyano-N-[5-[(E)-2-(4,4-difluorocyclohexyl)vinyl]-6-methoxy-3-pyridyl]-2-methyl-propane-1-sulfonamide] |
| 1400 nM | 950 nM | COc1ncc(NS(C)(=O)=O)cc1/C=C/C1CC(C)(C)C1 [Compound 36, N-[5-[(E)-2-(3,3-dimethylcyclobutyl)vinyl]-6-methoxy-3-pyridyl]methanesulfonamide] |
| 1300 nM | 750 nM | COc1ncc(NS(C)(=O)=O)cc1/C=C/C1CC(C(F)(F)F)C1 (racemic) [Compound 37, N-[6-methoxy-5-[rac-(E)-2-[3-(trifluoromethyl)cyclobutyl]vinyl]-3-pyridyl]methanesulfonamide] |
| 1100 nM | 1800 nM | CC[C@H](CO)NC(=O)c1cc(/C=C/C2CCC(F)(F)CC2)c(OC)cn1 (racemic) [Compound 41, 5-methoxy-4-[rac-(E)-2-(4,4-difluorocyclohexyl)vinyl]-N-[rac-(1R)-1-(hydroxymethyl)propyl]pyridine-2-carboxamide] |
| 2000 nM | 1200 nM | COc1ncc(NS(C)(=O)=O)cc1/C=C/CC(C)C [Compound 15, N-[6-methoxy-5-[(E)-4-methylpent-1-enyl]-3-pyridyl]methanesulfonamide] |
| 1700 nM | 980 nM | COc1cnc(C(=O)NC[C@H](O)CO)cc1/C=C/C1CC2(CC2)C1 [Compound 43, (E)-N-(2,3-dihydroxypropyl)-5-methoxy-4-(2-(spiro[2.3]hexan-5-yl)vinyl)picolinamide] |
| 860 nM | 1800 nM | CC[C@H](CO)NC(=O)c1cc(/C=C/C2CC3(CC3)C2)c(OC)nn1 [Compound 47, (E)-N-(1-hydroxybutan-2-yl)-6-methoxy-5-(2-(spiro[2.3]hexan-5-yl)vinyl)pyridazine-3-carboxamide] |
| 1700 nM | 1600 nM | COc1nnc(NS(C)(=O)=O)cc1/C=C/C1CCC(C(F)(F)F)CC1 (stereo not shown) [Compound 45, (E)-N-(6-methoxy-5-(2-(4-(trifluoromethyl)cyclohexyl)vinyl)pyridazin-3-yl)methanesulfonamide] |
| 700 nM | 830 nM | CC[C@H](CO)NC(=O)c1cc(/C=C/C2CC3(CC3)C2)c(OC)cn1 [Compound 44, (E)-N-(1-hydroxybutan-2-yl)-5-methoxy-4-(2-(spiro[2.3]hexan-5-yl)vinyl)picolinamide] |
| 970 nM | 550 nM | COc1nc(F)c(NS(C)(=O)=O)cc1/C=C/C1CCC(F)(F)CC1 [Compound 39, N-[5-[(E)-2-(4,4-difluorocyclohexyl)vinyl]-2-fluoro-6-methoxy-3-pyridyl]methanesulfonamide] |
| 1200 nM | 1900 nM | CCOc1ncc(NS(C)(=O)=O)cc1/C=C/C1CCC(F)(F)CC1 [Compound 18, N-[5-[(E)-2-(4,4-difluorocyclohexyl)vinyl]-6-ethoxy-3-pyridyl]methanesulfonamide] |
